In PubChem BioAssay AID449744 (Sanford-Burnham Center for Chemical Genomics, 2010):
Active and inactive are the calls of the source.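 The calls were made as follows: active = less UV crosslinking of translation factor eIF4H to capped RNA at 100 µM than solvent-only control; inactive = the rest.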

The compounds below were run against Eukaryotic translation initiation factor 4H (Homo sapiens) (UniProt Q15056) (assay: blockers of eIF4H-RNA cap-proximal interaction – biochemical, UV crosslinking, autoradiography, orthogonal assay for translation initiation inhibitor project, SAR follow-up (AID 449744)). Settings: UV crosslinking eIF4H:capped mRNA.
For `COc1ccc(N2Cc3cccc(C(=O)N4CCN(C(=O)c5ccco5)CC4)c3C2=O)cc1`, the outcome was “inactive”.
`Cc1ccc(NC(=O)CN2C(=O)N/C(=C/c3ccccc3OCc3cccc(C(=O)O)c3)C2=O)cc1` was tested, and the outcome was “inactive”.
For `O=C(Nc1cccc2ncccc12)c1ccc(Cl)cc1`, the outcome was “inactive”.
In the case of `Cc1ccc(NC(=O)C2CCN(C(=O)c3cccs3)CC2)c(C)c1`, the outcome is reported as “inactive”.
For `CC(C)c1ccc(OC(=O)c2cccc(S(=O)(=O)N3CCN(C)CC3)c2)cc1`, the outcome was “inactive”.
In the case of `O=C(Nc1ccccc1)C1CCN(C(=O)c2cccs2)CC1`, the outcome is reported as “inactive”.
`CCN1CCN(S(=O)(=O)c2ccc(Cl)c(C(=O)Nc3ccc(C(=O)N(CC)CC)cc3)c2)CC1` was tested, and the outcome was “inactive”.
For `CCn1c(=O)n(CC)c2cc(NC(=O)C(C)c3ccccc3)c(Br)cc21` (configuration not stated), the outcome was “inactive”.
For `CCOC(=O)N1CCC(NC(=O)c2cccc3c2C(=O)N(c2ccc(OC)cc2)C3)CC1`, the outcome was “inactive”.
For `CC(C)NC(=O)C(C)N1CCN(S(=O)(=O)c2ccc3ccccc3c2)CC1` (configuration not stated), the outcome was “inactive”.
In the case of `O=C(Nc1cccc2ncccc12)c1ccccc1Cl`, the outcome is reported as “inactive”.
With `COC(=O)c1c(Sc2ccccc2)c2ccccc2n1C` the outcome was “inactive”.
In the case of `CCc1nnc(NC(=O)CSc2ccc(-c3ccco3)nn2)s1`, the outcome is reported as “inactive”.
`COc1cc(/C=N/NC(=O)c2ccccc2)ccc1OCC(=O)Nc1ccc([N+](=O)[O-])cc1` was tested, and the outcome was “inactive”.
For `CCOC(=O)c1ccc2c(c1)N(CC)C(=O)c1ccccc1S2`, the outcome was “inactive”.
With `COc1cc([N+](=O)[O-])ccc1NC(=O)COC(=O)c1ccc(NC(N)=O)cc1` the outcome was “inactive”.
With `COc1cc(C=NNC(=O)c2ccccc2O)ccc1OCC(=O)Nc1ccccc1` the outcome was “inactive”.
`Cc1ccc(OC(C)C(=O)Nc2ccc3c(c2)n(C)c(=O)n3C)c(C)c1` (configuration not stated) was tested, and the outcome was “inactive”.
`O=C(COc1ccc(C=NNC(=O)c2ccc(O)cc2)cc1)Nc1ccc([N+](=O)[O-])cc1` was tested, and the outcome was “inactive”.
With `CCOC(=O)c1ccc2c(c1)N(C)C(=O)c1ccccc1S2` the outcome was “inactive”.
With `COc1cc([N+](=O)[O-])ccc1NC(=O)COC(=O)c1ccc2c(c1)NC(=O)CS2` the outcome was “inactive”.
`COc1ccc(N2Cc3cccc(C(=O)NC(C)CCc4ccco4)c3C2=O)cc1` (configuration not stated) was tested, and the outcome was “inactive”.
